Reference: patent EP0579804B1, “BIOLOGICAL ARTIFICIAL LIVER” (MONSANTO COMPANY, priority 1992, dated 1993)

Test system: Hepatocytes
Assay: extracorporeal hepatic metabolism in the hepatocyte bioreactor attached to an ahepatic pig
Assay type: in vitro ADME, outbred Yorkshire/white pig
Details: administered into the ultrafiltrate at the inlet of the bioreactor; metabolites 7-OH-coumarin and monoethylglycinexylidide (MEGX) measured at the outlets of the bioreactors
Protocol: The medium used was the hormone-supplemented Waymouth medium as described in Example 1. To accommodate 2 to 5 billion cells, the bioreactor was scaled up to two containment vessels, each with an internal diameter of 40 mm and a height of 100 mm. Glass beads of approx. 2 mm diameter and a total volume of 250 ml per containment vessel were used. Medium was perfused at a recycle rate of 360 ml/min.. […] The bioreactor was attached to an ahepatic pig (liver removed by surgery to mimic total hepatic failure) at approx. 2 hrs. after hepatocyte inoculation. Blood from the left femoral artery was directed into a Minntech hemoconcentrator. A 12 fringe elecath canula was inserted into the femoral artery and connected to a 1/4" PVC tubing to the hemoconcentrator. The hemoconcentrator separated the blood into a cell free ultrafiltrate fraction, and a blood cell fraction. The blood cell fraction was returned to the femoral vein via a similar tubing. The ultrafiltrate exited the hemoconcentrator via a 1/4" PVC tubing and entered the hepatocyte bioreactor system with the flow rate adjusted to 40 ml/min. using a roller pump. […] The respective metabolites, 7-OH-coumarin and monoethylglycinexylidide (MEGX), were measured at the outlets of the bioreactors before the ultrafiltrate was returned to the animal.

- metabolism: Significant metabolism
SMILES: CCOc1ccc2ccc(=O)oc2c1 [7-ethoxycoumarin]
